This note sets out measurements from patent US9301910B2, “Fragrant formulations, methods of manufacture thereof and articles comprising the same” (GFBiochemicals Limited, priority 2010, dated 2016).

Holding throughout (type): physicochemical
Series [1] in a line: Miscibility of alkyl ketal esters with organic compounds. The conditions noted are these: parts of the organic compound in 80 parts of the alkyl ketal ester; organic compounds as listed in the block. As to the method: (§1) Unless stated otherwise, miscibility is assessed at 25° C.
The nature of series [2]: Dissolution of vanillin in alkyl ketal esters. The procedure:
[…] […] Dissolution is much quicker at 80° C.
Vanillin was dissolved at 25% solids by weight in Et-LPK with slight heating (80° C.).

Series [3] can be described thus: Miscibility of alkyl ketal esters with water. As to conditions: for miscible in water to the extent of: parts of ester, balance to 100 parts is water (1 per 99, 2.5 in 97.5, 5 per 95); for miscibility with water: miscibility assessed at 25° C unless stated otherwise. The procedure: as §1
A short description of series [4]: Compatibility between waxes and alkyl ketal esters (melt, cool to room temperature). As to the method:
Compatibility between various waxes and the alkyl ketal esters was first determined as detailed below. Table 10 below details the fragrant formulations for 10 different candles (Examples 116-125) that contain the fragrant composition.
Beeswax and Et-LGK were weighed into a vessel in a 50/50 weight ratio and heated to 80° C. to form a uniform molten mixture.
Gulf Wax brand of household paraffin wax for canning and candlemaking (distributed by Royal Oak Enterprises) was used in these experiments.

Experiment in series [5]: as above
As to conditions: 25/75 weight ratio of Et-LGK to beeswax, 80° C, cooled.

The mark [6] stands for this setting: NatureWax C-3 / ester 90/10 weight ratio, 80° C, cooled.
Where [7] appears, read: beeswax / ester 50/50 weight ratio, melted at 80° C, cooled to room temperature.
The mark [8] stands for this setting: candelilla wax / ester 50/50 weight ratio, 120° C, cooled.
Where [9] appears, read: carnauba wax / ester 50/50 weight ratio, 120° C, cooled.
Where [10] appears, read: paraffin wax / ester 75/25 weight ratio, 80° C, cooled to room temperature.
[11] abbreviates: vanillin at 10% solids by weight in the ester, room temperature.
Setting [12] is: NatureWax C-1 / ester 90/10 weight ratio, 80° C, cooled.
[13] abbreviates: NatureWax P-1 / ester 75/25 weight ratio, 80° C, cooled.
The mark [14] stands for this setting: paraffin wax / ester 50/50 weight ratio, 80° C, cooled to room temperature.
[15] abbreviates: stearic acid / ester 50/50 weight ratio, 80° C, cooled to room temperature.

Turning to `CCCCOC(=O)CCC1(C)OCC(CO)O1` (stereo not shown) [Bu-LGK, glycerol ketal of butyl levulinate], in series [1], the “dissolves or is miscible with organic compounds to the extent of” value (“dissolves or is miscible” for short) is “at least 20 parts”. Moreover, the dissolution of vanillin entry in series [2] (vanillin at 25% solids by weight in the ester, room temperature) was “initially appeared to be insoluble but over the course of five days, the vanillin dissolved, resulting in a clear uniform mixture”. Moreover, in series [3], the “miscible in water to the extent of” value was 1 parts. The layers upon cooling entry is “single homogenous wax layer” in series [4] (NatureWax C-1 / ester 50/50 weight ratio, 80° C, cooled); “single homogenous wax layer” in series [4] (setting [6]); “single homogenous wax layer” in series [4] (NatureWax P-1 / ester 50/50 weight ratio, 80° C, cooled); “single homogenous wax layer” in series [4] (setting [7]); “single homogenous wax layer” in series [4] (setting [8]); “single homogenous wax layer” in series [4] (setting [9]). In addition, the layers upon cooling entry in series [4] (setting [10]) is on record as “Two layers formed”.

`CCOC(=O)CC1(C)OCC(CO)O1` (stereo not shown) [Et-AcAcGK]: the miscibility with water result in series [3] is listed as “miscible with water in all proportions”.

As to `CCOC(=O)CCC1(C)OCC(CO)O1` (stereo not shown) [Et-LGK, glycerol ketal of ethyl levulinate], in series [1], the “dissolves or is miscible” value was “at least 20 parts”. The layers upon cooling entry was “single homogenous wax layer” in series [5]; “single homogenous wax layer” in series [4] (25/75 Et-LGK to stearic acid by weight, 80° C, cooled); “single homogenous wax layer” in series [4] (setting [12]); “single homogenous soft wax layer” in series [4] (setting [6]); “single homogenous wax layer” in series [4] (setting [13]); “Two layers formed” in series [4] (setting [7]). Further, the layers upon cooling entry in series [4] (candelilla wax / ester 75/25 weight ratio, 120° C, cooled to room temperature) is “Two layers formed”; in series [4] (candelilla wax / ester 90/10 weight ratio, 120° C, cooled), “single homogenous wax layer”; in series [4] (setting [9]), “Two layers formed”; in series [4] (carnauba wax / ester 75/25 weight ratio, 120° C, cooled), “single homogenous wax layer”; in series [4] (setting [14]), “Two layers formed”; in series [4] (paraffin wax / ester 90/10 weight ratio, 80° C, cooled to room temperature), “single homogenous wax layer”. In series [4] (setting [15]), the layers upon cooling entry is on record as “Two layers formed”. The dissolution of vanillin entry in series [2] (setting [11]) is “clear uniform mixture”. Besides, the miscibility with water result in series [3] was “miscible in water in all proportions”.

On to `CCOC(=O)CCC1(C)OCC(C)O1` (stereo not shown) [Et-LPK, propylene glycol ketal of ethyl levulinate], for which the “dissolves or is miscible” value in series [1] is reported as “at least 20 parts”. Besides, the dissolution of vanillin result is “clear uniform mixture” in series [2] (setting [11]); “clear uniform solutions hot and stayed as a clear uniform mixture at room temperature initially” in series [2] (vanillin at 25% solids by weight in the ester, slight heating (80° C)). Besides, the “precipitation of vanillin on standing” value in series [2] (vanillin at 25% solids by weight, dissolved at 80° C, then room temperature) is given as “Within an hour, signs of precipitation at room temperature appeared”. Also, the “miscible in water to the extent of” value in series [3] was 2.5 parts. In addition, the layers upon cooling entry in series [4] (setting [12]), in series [4] (setting [6]), in series [4] (setting [13]), in series [4] (setting [7]), in series [4] (setting [8]) and in series [4] (setting [9]) was “single homogenous wax layer” in each case. In addition, the layers upon cooling result in series [4] (setting [14]), in series [4] (setting [10]) and in series [4] (setting [15]) was “single homogenous wax layer” each time.

Take `COC(=O)CC1(C)OCC(CO)O1` (stereo not shown) [Me-AcAcGK]: the miscibility with water result in series [3] is given as “miscible with water in all proportions”.

For `CCOC(=O)CCC1(C)OCCO1` [ethyl-LEK], in series [3], the “miscible in water to the extent of” value came to 5 parts.

As to `COC(=O)CCC1(C)OCC(CO)O1` (stereo not shown) [methyl-LGK], the miscibility with water result in series [3] is reported as “miscible with water in all proportions”.

Regarding `CCCCOC(=O)CCC1(C)OCC(C)O1` (stereo not shown) [n-butyl-LPK], in series [1], the “dissolves or is miscible” value is on record as “at least 20 parts”.

With `CCCOC(=O)CCC1(C)OCC(CO)O1` (stereo not shown) [n-propyl-LGK], in series [3], the “miscible in water to the extent of” value is 1 parts.
